Ends that are not written are not given here.
Assays:
[1] = system: VEGF; assay: Effect on vascularization: expression of VEGF (FIG. 9); format: cell-based; conditions: cells treated with BFP 5; alongside VEGF, FGF, SDF-1a, SDF-1g
[2] = system: alkaline phosphatase and Osterix; assay: Level of proteins expressed in osteoblasts (FIG. 6); format: cell-based; conditions: FIG. 6, protein level
[3] = system: alkaline phosphatase; conditions: at 1 μg/μL of BFP 5; RT-PCR / enzyme activity kit
[4] = system: Osterix; assay: Osterix expression at varied concentrations of BFP 5 (FIG. 8); format: cell-based
[5] = system: Runx2, alkaline phosphatase, Osteopontin, collagen type 1, DLX5, and Osterix; assay: Expression of osteoblast-specific genes under a fluorescent microscope using antibodies (FIG. 5); format: cell-based; conditions: cells treated with BFP 5, fluorescent microscope using antibodies
Description: An osteoblast-specific protein is expressed upon differentiation into osteoblasts. When the antibody to the protein was reacted to cells and the degree of binding was confirmed by a fluorescent microscope.

[6] = system: mesenchymal stem cells; assay: Measurement of mineralization by Alizarin Red staining; format: cell-based, Balb/c mouse; conditions: cells added with 1 μg/μL of BFP 5; tested at 0.01, 0.1, 1 and 10 μg/μL, osteogenic differentiation medium, two additional days
Protocol: Mesenchymal stem cells (1×10^4), which were cloned from Balb/c mouse bone marrow stromal cells) were aliquoted into 10% FBS-containing DMEM and cultured in an atmosphere (about 37° C., 5% CO2) for 3 days, and thereby the mesenchymal stem cells to be used as osteoblasts in the present experiment were prepared. Osteogenic differentiation medium (hereinafter, “ODM”) consists of DMEM which contains 50 μg/mL of ascorbic acid, 10^−8 M dexamethasone, 10 mM β-glycerophosphate, etc.
The differentiation of the mesenchymal stem cells into osteoblasts causes calcium accumulation. Here, the degree of calcium accumulation refers to the degree of differentiation of osteoblasts, and the degree of accumulation of calcium ions can be confirmed by observing the degree of staining of the cells that are stained red, via Alizarin Red staining. In this regard, the mineralization was measured via Alizarin Red staining. That is, as the differentiation into osteoblasts are promoted there are more regions that can be stained by Alizarin Red. Accordingly, the degree of osteogenic differentiation can be confirmed by adding Alizarin Red to the osteogenic differentiation medium, treating with the peptide of SEQ ID NO: 1 (BFP 5), and observing the degree of Alizarin Red staining. […]

## PPRACPTARALCEIR (cysteine pairing not given here) [SDF-1d-derived peptide consisting of 15 amino acids, named bone forming peptide 5]
[1]
  expression of VEGF, a protein associated with vascularization: strong expression
[2]
  Osterix protein expressed in osteoblasts: strongly expressed
  alkaline phosphatase protein expressed in osteoblasts: strongly expressed
[3]
  expression of alkaline phosphatase: strong expression
[4]
  concentration of BFP 5 at which expression (Osterix) is at the highest level: 0.1 µg/mL
[5]
  expression of DLX5: strongly expressed
  expression of Osteopontin: strongly expressed
  expression of Osterix: strongly expressed
  expression of Runx2: strongly expressed
  expression of alkaline phosphatase: strongly expressed
  expression of collagen type 1: strongly expressed
[6]
  Alizarin Red staining (mineralization accumulated via osteogenic differentiation): strongest staining

Reference: patent publication US10221227B2, “Peptide for promoting osteogenic differentiation or vascularization and use thereof” (INDUSTRY FOUNDATION OF CHONNAM NATIONAL UNIVERSITY, priority 2015, dated 2019)
